Measurements taken from PubChem BioAssay (NCI).
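The compound was tested at five concentrations on cells cultured in 96-well plates, with a 48-hour exposure period. TGI: concentration producing complete growth inhibition.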

Key:
Test in all cases: growth of human tumour cells (NCI), 48 h
ACHN renal = tested on: ACHN renal
HT29 colon = tested on: HT29 colon
K-562 leukemia = tested on: K-562 leukemia
M14 melanoma = tested on: M14 melanoma
NCI-H460 lung = tested on: NCI-H460 lung
HOP-62 NSCLC = tested on: HOP-62 NSCLC
SK-MEL-5 melanoma = tested on: SK-MEL-5 melanoma
CCRF-CEM leukemia = tested on: CCRF-CEM leukemia
HCC-2998 colon = tested on: HCC-2998 colon
786-0 renal = tested on: 786-0 renal
CAKI-1 renal = tested on: CAKI-1 renal
MALME-3M melanoma = tested on: MALME-3M melanoma
SK-MEL-2 melanoma = tested on: SK-MEL-2 melanoma
NCI-H522 lung = tested on: NCI-H522 lung
OVCAR-3 ovarian = tested on: OVCAR-3 ovarian
HOP-92 NSCLC = tested on: HOP-92 NSCLC

Row | SMILES | TGI (ACHN renal) [µM] | TGI (HT29 colon) [µM] | TGI (K-562 leukemia) [µM] | TGI (M14 melanoma) [µM] | TGI (NCI-H460 lung) [µM] | TGI (HOP-62 NSCLC) [µM] | TGI (SK-MEL-5 melanoma) [µM] | TGI (CCRF-CEM leukemia) [µM] | TGI (HCC-2998 colon) [µM] | TGI (786-0 renal) [µM] | TGI (CAKI-1 renal) [µM] | TGI (MALME-3M melanoma) [µM] | TGI (SK-MEL-2 melanoma) [µM] | TGI (NCI-H522 lung) [µM] | TGI (OVCAR-3 ovarian) [µM] | TGI (HOP-92 NSCLC) [µM]
1 | CCO[C@]12C[C@H](OC)[C@@]3(O)CC(C1[C@H]3OCc1ccccc1)C13C4C2[C@H](OC)C1[C@](COC)(CN4CC)[C@H](O)C[C@@H]3OC (some centres undefined) | > 100 | > 100 | > 100 | > 100 | > 100 | > 100 | > 100 | > 100 | > 100 | > 100 |  |  |  |  |  | 
2 | Cn1c(/C=C(\O)c2ccc(Cl)cc2)nc2ccccc21 | > 100 | > 100 | > 100 | > 100 | > 100 |  | 92.4 | > 100 | > 100 | > 100 | 97 | > 100 | > 100 | > 100 | > 100 | 
3 | CCOC(=O)C1=C(O)C(=O)c2ccsc2C1=O | > 100 | > 100 | > 100 | > 100 | > 100 | > 100 | > 100 | > 100 | > 100 | > 100 | > 100 | > 100 | > 100 | > 100 | > 100 | > 100
4 | CC12NN=NC1C(=O)NC2=O (centres undefined) | > 100 | > 100 | > 100 |  | > 100 | > 100 | > 100 | > 100 | > 100 | > 100 | > 100 |  | > 100 | > 100 | > 100 | > 100
5 | CC(=O)C1=CSC2[C@H](NC(=O)Cc3ccccc3)C(=O)N2C1C(=O)OC(c1ccccc1)c1ccccc1 (some centres undefined) |  | > 100 | > 100 | > 100 |  | > 100 | > 100 | 68.2 | > 100 | > 100 | > 100 | > 100 | > 100 | > 100 | > 100 | > 100
6 | Cc1cc2c(C)n(Cc3ccc(Cl)cc3Cl)nc2c(C#N)c1C | > 100 | > 100 | > 100 | > 100 | > 100 | 49.7 | > 100 | > 100 | > 100 | 37.4 | > 100 | > 81.6 | > 100 | > 100 | > 100 | 36.9
7 | CSCC1CC(c2ccc(Cl)cc2)=NO1 (centres undefined) | > 100 | > 100 | > 100 | > 100 | > 100 | > 100 | > 100 | > 100 | > 100 | > 100 | > 100 | > 100 | > 100 | > 100 | > 100 | > 100
8 | CCOC(=O)C1=C(NC)OC/C1=N\NC(=O)c1ccccc1O |  |  | > 100 | > 100 | > 100 | > 100 | > 100 | > 100 | > 100 | > 100 | > 100 | > 100 | 48.2 | 90.5 | 98.5 | > 100
